# Entries after “also recorded” stand apart in the source; their conditions may differ.
# Legend:
# pri-miR-96 [1] = experiment: In vitro cleavage of pri-miR-96 by RNase L (fluorescence-based and gel mapping); assay type: biochemical; settings: in vitro competition
# Excerpt: Determination of RNA cleavage by fluorescence: A model RNase L substrate RNA1 labeled with a 5′ 6-Fluorescein and 3′ Iowa Black® FQ (5′-6FAM-UUAUCAAAU […] 3′ (SEQ ID NO: 1)—Iowa Black® FQ: RNA 1) was purchased from Integrated DNA Technologies, Inc. (IDT), which also HPLC purified the oligonucleotide. A model of pri-miR-96 RNA labeled with 5′ 6-Fluorescein and 3′ Quencher (IQ4, structure undisclosed) (5′-6FAM […] […] 3′ (SEQ ID NO: 2)—IQ4: RNA 2) was purchased from and HPLC purified by Chemgenes. Solutions of RNA 1 or RNA 2 were folded at 70° C. for 5 min and cooled to room temperature in RNase L Buffer without MgCl2, β-mercaptoethanol or ATP. After cooling, the RNA was supplemented with 10 mM MgCl2, fresh 7 mM β-mercaptoethanol, and 50 μM of ATP. […] Fluorescence intensity (Ex: 485 nm, Em: 528 nm) was measured on a BioTek FLx800 plate reader. Relative Fluorescence Enhancement was calculated by normalizing the fluorescent signal of treated RNA samples to the fluorescent signal of untreated RNA samples. Percentage RNA Cleavage was calculated by normalizing sample fluorescent signals relative to the maximum fluorescent signal, set as 100%. […] Normalized RNA Cleavage was calculated by normalizing sample fluorescent signals relative to the maximum fluorescent signal (compound with no tRNA), set as 1. […]
# pri-miR-96's Drosha site = settings: parent compound, pri-miR-96 Drosha site; cited from earlier work
# mature miR-96 = experiment: Mature miR-96 levels in cells by RT-qPCR; assay type: cell-based; settings: MDA-MB-231 cells
# Procedure: (§1) Cell culture: All cells were maintained at 37° C. with 5% CO2. MDA-MB-231 (HTB-26, ATCC) cells were cultured in RPMI 1640 medium with L-glutamine & 25 mM HEPES (Corning) supplemented with 10% FBS (Sigma) and 1×Antibiotic-Antimycotic (Corning). A549 (CCL-185, ATCC), HeLa (CCL-2, ATCC), and MCF7 (HTB-22, ATCC) cells were cultured in DMEM medium with 4.5 g/L glucose (Corning), supplemented with 10% FBS (Sigma), 1×Glutagro (Corning), and 1×Antibiotic-Antimycotic (Corning). MCF10a (CRL-10317, ATCC) cells were cultured in DMEM/F12 50/50 with L-glutamine & 15 mM HEPES (Corning), supplemented with 10% FBS (Sigma), 20 ng/mL human epidermal growth factor (Pepro Tech Inc.), […] hydrocortisone (Pfaltz & Bauer), 100 ng/mL cholera toxin (Sigma-Alrich), 10 μg/mL insulin (Sigma-Aldrich), and 1×Antibiotic-Antimycotic (Corning). […]
# (§2) RNA isolation and RT-qPCR: Total RNA was extracted from untreated and treated cells by using a Quick-RNA MiniPrep (Zymo Research) per the manufacturer's protocol. […] RNA expression levels were determined using the ΔΔCt method and normalized with U6 small nuclear RNA as a housekeeping gene. Upon treatment with chimeric compound 2, relative cleavage levels were calculated according to equation 2 (Eq. 2) in order to control for the effect of parent compound 1a, on pri-miR-96 expression: […]
# pri-miR-96 [2] = experiment: pri-miR-96 levels / cleavage in cells by RT-qPCR; assay type: cell-based
# Procedure: as §1, §2
substance,measurement,setting,value
Targaprimir-96 [Compound 1a],Cleavage at U12 by 2 upon addition of the parent compound,pri-miR-96 [1],inhibited
same,Kd,pri-miR-96's Drosha site,0.02 µM
same,mature miR-96 levels,mature miR-96,reduced
same,pri-miR-96 levels,"pri-miR-96 [2]; MDA-MB-231 cells, RT-qPCR",increased; also recorded: boosted
same,2-mediated pri-miR-96 cleavage upon co-treatment with 1a,"pri-miR-96 [2]; constant concentration of 2, increasing concentrations of 1a",decreased pri-miR-96 cleavage levels in a dose dependent fashion; also recorded: reduced
